The values below come from the METLIN SMRT retention time set (Domingo-Almenara et al. 2019).

This data set in a line: gradient 5% acetonitrile 3 min, to 50% in 2 min, to 85% in 15 min, held 3 min, 100 µL/min. The conditions noted are these: column: Zorbax Extend-C18 2.1 x 50 mm; eluents: water / acetonitrile, 0.1% formic acid. The method, boiled down: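 Each retention time is based on an adduct peak selected computationally and verified by manual inspection. Measurements used HPLC–quadrupole time-of-flight mass spectrometry in positive and negative ionization mode on mixtures of ~100 pure standards. Chromatography ran on a Zorbax Extend-C18 column (2.1 × 50 mm, 1.8 μm) at 100 μL/min with water and acetonitrile, each containing 0.1% formic acid, and dead and dwell volumes of 40 μL and 900 μL.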
`CCCn1nc2ccc(S(=O)(=O)N3CCC(C)CC3)cn2c1=O`: the RP-LC retention time was found to be 893 s.

Regarding `CCc1nn(C)c(=O)c2cc(S(=O)(=O)NCc3cc(F)cc(F)c3)cn12`, the RP-LC retention time was determined as 882 s. As for `O=C(c1noc2ccc(S(=O)(=O)N3CCN(c4ccccn4)CC3)cc12)N1CCCC1`, the figure is 677 s; as for `Cc1ccc(CN2CCN(C3CCN(C(=O)Nc4ccccc4)CC3)C2=O)cc1`, 844 s; as for `O=C(CCc1c(-c2ccccc2)nc2ccccn12)Nc1ccc(Br)cc1`, 725 s. `CC1CCCCC1NC(=O)C1(C)Cn2c(cc3occc32)C(=O)N1Cc1cccnc1` (stereo not given) had an RP-LC retention time of 659 s. `O=C(C1CCC1)N1CCCC(OCc2nc(-c3ccccc3)no2)C1` (stereo not given) displayed an RP-LC retention time of 791 s. As to `COc1cc(NC(=O)NCC2(O)CCCC2)cc(OC)c1`, the RP-LC retention time came to 660 s. As for `Cc1ccc2c(c1)OCC(=O)N2Cc1nc(-c2ccc(Cl)cc2)no1`, the RP-LC retention time amounted to 1140 s. As for `CCCS(=O)(=O)N1CC(n2cc(C(=O)N(C)C)nn2)C1`, the figure is 626 s.

`O=C(c1ccnc(-c2cccs2)c1)N1CCN(c2ncccn2)CC1` displayed an RP-LC retention time of 749 s. `Cc1ccccc1CNC(=O)CN1CCN(Cc2ccc(F)cc2)C1=O`: the RP-LC retention time is 803 s. As for `Cn1cc(CCN2CCC(C(=O)NCc3cccc(Cl)c3)CC2)c2cccnc21`, the RP-LC retention time was 630 s.

With `O=C(c1ccsc1)N1CCCCC1c1nncn1-c1ccccc1` (stereo not given), the RP-LC retention time is 676 s. Turning to `COCCC(=O)Nc1cnn(-c2ncc(N3CCCC3)cn2)c1`, the RP-LC retention time worked out at 642 s. As for `CCCCN(CCCC)C(=O)CN1C[C@H](c2ccc3c(c2)OCO3)[C@@H](C(=O)O)[C@@H]1c1ccc(OC)cc1`, the figure is 974 s. For `O=C(NC1CCCCC1)N1CCN(CCn2c(-c3ccncc3)nc3cccnc32)CC1`, the RP-LC retention time is 585 s. Take `CC(C)Cc1csc(-c2csc(S(=O)(=O)NCc3ccc(Cl)cc3)c2)n1`: the RP-LC retention time is 1240 s. As for `CC(C)NC(=O)c1nccnc1NC(=O)c1ccccc1`, the figure is 817 s. As for `COC(=O)c1c(NCCC(C)C)c2cc(F)ccc2[nH]c1=O`, the figure is 792 s. Turning to `Cc1nc2cc(-c3noc(/C=C/c4cccs4)n3)ccc2o1`, the RP-LC retention time came out at 1080 s.

On to `COc1ccc(-c2nc(-c3cn(-c4ccc(C)cc4)nn3)no2)c(OC)c1`, for which the RP-LC retention time was determined as 1050 s.

Regarding `CCOC(=O)Cc1csc(NC(=O)CNC(=O)c2c[nH]c3ccccc23)n1`, the RP-LC retention time was found to be 670 s. Consider `O=c1ccn(-c2ccc(F)c(F)c2)nc1-c1nc(-c2ccccc2F)no1`, for which the RP-LC retention time is 863 s. Turning to `Cc1cc(Cl)ccc1S(=O)(=O)Nc1ccc(Cn2cncn2)cc1`, the RP-LC retention time was 782 s. The figure for `CSc1cccc(NC(=O)Cn2cccc2-c2nc(-c3ccccc3)no2)c1` is 1070 s; for `CC1CCN(C(=O)C2CCCN(c3ncnc4c3nc3n4CCCCC3)C2)CC1` (stereo not given) it is 793 s; for `CN1CCN(Cc2nn(C)c3c2CN(S(=O)(=O)c2ccccc2Cl)CC3)CC1` it is 615 s. As for `O=C(NCCC1CCN(C(=O)Nc2ccccc2)CC1)c1ccsc1`, the figure is 749 s; as for `O=C(Nc1ccccc1Cl)NC1CCCN(c2cc(-c3ccncc3)[nH]n2)C1` (stereo not given), 582 s; as for `O=S(=O)(Nc1ccc(Cn2cncn2)cc1)c1ccc(F)c(F)c1`, 721 s. The figure for `COCC(=O)N1C[C@@H]2C(=O)N(CCc3ccccc3)C(=O)[C@@H]2C1` is 662 s; for `CC(C)N1C(=O)C(C)(C(=O)Nc2ccc(Cl)cc2)Oc2cccnc21` (stereo not given) it is 903 s. `CC(C)(C)c1ccc(S(=O)(=O)N2CCCC(CNC(=O)c3ccccc3)C2)cc1` (stereo not given) returned an RP-LC retention time of 1080 s. Turning to `CC(C)NC(=O)N1CCC(OCc2ccccc2)C1` (stereo not given), the RP-LC retention time worked out at 742 s. As to `COC(=O)/C(=C1/OC(=O)C(c2ccccc2)=C1O)c1ccccc1`, the RP-LC retention time came to 1130 s. On to `Cn1c(=O)n(C)c2cc(CNCCc3ccc(Cl)cc3Cl)ccc21`, for which the RP-LC retention time is 653 s. `Cc1cc(C(=O)N2CCC3(CCC3OCC(N)=O)CC2)c(C)o1` (stereo not given) yielded an RP-LC retention time of 681 s. Take `Cc1cccc(-c2noc(CN3C(=O)COc4cc(C)ccc43)n2)c1`: the RP-LC retention time was found to be 1110 s.

For the compound `Cc1ccc(-c2nc3cnccn3c2Nc2ccc(C)c(Cl)c2)cc1`, the RP-LC retention time was determined as 1080 s.

`Cc1cnc(C2CCC2)n1CCNC(=O)c1cc(C2CC2)[nH]n1` returned an RP-LC retention time of 586 s. For the compound `CCOc1ccc(C(=O)NC2CCN(c3cc(-c4ccccc4)[nH]n3)C2)cc1` (stereo not given), the RP-LC retention time was determined as 741 s. The figure for `Cc1nc2nc(C)c(CCC(=O)N3CCC(Cc4ccccc4)CC3)c(C)n2n1` is 804 s. As for `O=C(NC1CCCC1)N1CCN(c2nc3ccccc3n(Cc3ccccc3)c2=O)CC1`, the figure is 997 s; as for `O=C(C1CCCO1)N1CCC(CCOc2ccccc2F)CC1` (stereo not given), 879 s. The compound `COCCOCc1nc(C2CCN(S(=O)(=O)c3cc(F)ccc3F)C2)no1` (stereo not given) returned an RP-LC retention time of 817 s. The figure for `CNC(=O)c1cc(Oc2ccc(NC(=O)Nc3cc(C(C)(C)C)nn3-c3ccc4ncccc4c3)c(F)c2)ccn1` is 855 s; for `Fc1ccc(OCc2nc(-c3ccc(-c4csc(C5CC5)n4)cc3)no2)cc1` it is 1330 s. The figure for `CCN1C(=O)COc2ccc(-c3noc(-c4cccc5[nH]ccc45)n3)cc21` is 998 s. The figure for `Cc1cc(Cl)ccc1NC(=O)C1CCN(S(=O)(=O)c2ccc3c(c2)NC(=O)CO3)CC1` is 839 s; for `CCCn1cc(C(=O)Nc2ccc(OC)c(Cl)c2)c(=O)c2ccc(C)nc21` it is 1210 s. `O=C(C1CC1)N1CCc2sc(S(=O)(=O)Nc3ccc(F)cc3Cl)cc2C1` came in with an RP-LC retention time of 870 s.

On to `CCS(=O)(=O)N1CC(=O)N(c2ccc(C)c(Cl)c2)C(C)(C(=O)NC2CCCCCC2)C1` (stereo not given), for which the RP-LC retention time was 1010 s. The figure for `CC1=NS(=O)(=O)c2cccnc2N1c1cccc(Br)c1` is 825 s; for `Cc1cc(NC(=O)Cn2cnc3c(cnn3C(C)(C)C)c2=O)no1` it is 688 s; for `COCCCNC(=O)C1c2cc(OC)c(OC)cc2C(=O)N(C)C1c1ccc(SC)cc1` (stereo not given) it is 607 s. The figure for `COc1ccc(NC(=O)C2CC(=O)N(c3ccc4c(c3)CCN4C(=O)C3CC3)C2)cc1F` (stereo not given) is 770 s. Compound `CCN1CCn2cc(C(=O)NCc3ccc(SC)cc3)nc2C1` came in with an RP-LC retention time of 596 s. As for `CCC(C)NC(=O)C1COC2(CCN(C(=O)c3ccc(F)cc3F)CC2)N1C(=O)c1ccccc1` (stereo not given), the figure is 744 s.

Consider `CN1C(=O)C2CCCCN2c2ccc(C(=O)NCCCN3CCCCC3)cc21` (stereo not given), for which the RP-LC retention time was found to be 600 s. As for `Fc1ccc(CSc2ncnc3nc[nH]c23)cc1`, the figure is 719 s.

The compound `COCCOc1ccc2c(n1)CCN(C(=O)NC1CCCC1)C2` displayed an RP-LC retention time of 724 s. As for `Cc1ccc2[nH]cc(CCNC(=O)CCc3ccccc3)c2c1`, the figure is 880 s.

As for `COc1ccc2c(c1)OC1(C)CC2C(S(=O)(=O)c2ccc(C)c(C)c2)C(=O)N1C` (stereo not given), the RP-LC retention time was 1030 s. As for `CC1CN2C=NC(N3CCN(C(=O)Nc4ccc(Cl)cc4F)CC3)=CC2=N1` (stereo not given), the figure is 636 s; as for `Cc1noc(C)c1-c1ccc(S(=O)(=O)Nc2ccccc2)cc1`, 912 s; as for `CSC1=C(C#N)C(c2ccco2)C(C(=O)Nc2ccccc2C)=C(C)N1` (stereo not given), 786 s. In turn, `COc1cc2c(cc1OC)C(C(=O)NCc1cccnc1)C(c1ccc(SC)cc1)N(C)C2=O` (stereo not given) displayed an RP-LC retention time of 630 s. As for `Cc1ccc2nc(-c3ccc(O)cc3)c(Nc3ccccc3C)n2c1`, the figure is 678 s; as for `Cc1ccc(C(=O)N2C[C@@H]3C[C@H](NC(=O)c4cccnc4)[C@H]2C3)cc1F`, 609 s. The figure for `O=C1NC2(CCN(C(=O)Nc3ccc(F)cc3)CC2)Oc2ccccc21` is 742 s; for `CC1CCN(CCCNC(=O)c2nc(CCS(=O)(=O)c3ccc(F)cc3)no2)CC1` it is 634 s; for `Cc1ccc(N2CCN(S(=O)(=O)c3cc(-c4nnc(C5CCC5)o4)co3)CC2)cc1` it is 1110 s. As for `COC(=O)c1ccc(NC(=O)CSc2nnc(C)c3cnn(-c4ccccc4)c23)cc1`, the figure is 705 s; as for `Cc1cnn(Cc2c(C(=O)N3C[C@@H](C(N)=O)[C@H](c4n[nH]c(C)n4)C3)noc2C)c1`, 590 s; as for `COc1cccc(C(=O)NCc2nnnn2C2CCCCC2)c1OC`, 784 s. With `O=C(Nc1cnn(-c2ncc(N3CCCCC3)cn2)c1)C1CCCC1`, the RP-LC retention time stood at 807 s. As for `Cc1c(Cl)cccc1Nc1c(-c2ccc3c(c2)OCO3)nc2cnccn12`, the figure is 975 s.

With `O=S(=O)(c1ccc(F)cc1)N1CCC(OCCOCc2ccccc2)CC1`, the RP-LC retention time came to 1060 s.

Turning to `CCN1C(=O)CCc2cc(NS(=O)(=O)Cc3ccccc3Cl)ccc21`, the RP-LC retention time turned out to be 803 s.
